What was measured:
Cx43 hemichannels = molecular target: T1, Cx43 hemichannels (Homo sapiens, UniProt P17302); assay: ATP biosensing (hemichannel mediated ATP release); type: cell-based; conditions: hPTECs; TGFβ1 10 ng/mL alone, 48 h; removal of extracellular calcium
T1 construct: host or cells: HK2 human kidney proximal tubule epithelial cell line
Description: HK2 cells were cultured in low (5 mM) glucose with/without TGFβ1 (10 ng/ml)±danegaptide (50 or 100 nM) for 48 h. Representative biosensor traces show ATP release following removal of extracellular calcium. […] Peak responses were quantified by comparing against a known concentration of ATP (10 μM) and mean data±SEM plotted (E). Results are representative of 3 separate experiments (n=3; **P<0.01, […] ***P<0.001; one-way ANOVA and Tukey's post-test).
ATP biosensors (Sarissa Biomedical, Coventry UK) were used in a simultaneous dual-recording ampomeric setup as described previously (Price, G. W.; Chadjichristos, C. E.; Kavvadas, P.; Tang, S. C. W.; Yiu, W. H.; Green, C. R.; Potter, J. A.; Siamantouras, E.; Squires, P. E.; Hills, C. E. Blocking Connexin-43 mediated hemichannel activity protects against early tubular injury in experimental chronic kidney disease. Cell Commun. Signal. 2020, 18). A null biosensor was used to account for non-specific electro-active artefacts and subtracted from the ATP trace. Glycerol (2 mM) was included in all recording solutions to enable ATP detection. HK2 cells were seeded on glass coverslips (10 mm diameter) in low glucose DMEM/F12 (5 mmol/L) for 48 h, prior to an overnight serum-starvation. The cells were then incubated with TGFβ1 (10 ng/ml)±danegaptide (100 nM) for 48 h. The coverslips were transferred to a chamber containing Ca^2+-containing BSS perfused at 6 ml/min (37° C.) and left for 10 min to acclimatise. ATP and null biosensors were bent and lowered so that the electrode laid parallel to the cellular monolayer. Once a stable baseline occurred, perfusion of Ca^2+-free BSS stimulated hemichannel opening. After ATP release, Ca^2+-containing BSS was used to close hemichannels, followed by a calibration solution of ATP ([…]). Recordings were acquired at 4 Hz with a Micro CED (Mark2) interface using Spike (v8.03) software.

HK2 cells = assay: Lactate dehydrogenase (LDH) release assay; type: cell-based; conditions: TGFβ1 10 ng/mL alone, 48 h
Description: HK2 cells were cultured in low glucose (5 mM) for 48 h, prior to being serum-starved overnight and subsequently treated with TGFβ1 (10 ng/mL)±danegaptide (50 nM-1 μM) for 48 h (FIG. 1A, n=3).
The release of lactate dehydrogenase (LDH) into media as a result of plasma membrane damage is commonly used to evaluate cell death or cytotoxicity. HK2 cells were seeded in 96-well plates and cultured in low glucose DMEM/F12 (5 mM) for 48 h, prior to overnight serum-starvation. Cells were then stimulated for 48 h with TGFβ1 (10 ng/ml)±danegaptide (50-1000 nM). The LDH-cytotoxicity assay kit II (Abcam) was used to quantify LDH according to the manufacturer's instructions.

primary hPTECs [1] = assay: Inflammation antibody array, cell lysates (Table 1); type: cell-based, human; conditions: hPTEC lysate; TGF-β1 10 ng/mL alone, 48 h
Description: (§1) An inflammation antibody array was used to assess regulation of 31 candidate inflammatory proteins in cell lysates from hPTEC cells treated with TGFβ1±danegaptide. Results are representative of 3 separate experiments and presented as mean±SEM, n=3 with key significances indicated (*P<0.05, **P<0.01, ***P<0.001; one-way ANOVA and Tukey's post-test).
(§2) A proteome profiler array (Human Cytokine Array Kit from R&D Systems, Oxfordshire, UK) was used, to determine if danegaptide negates TGFβ1-induced changes in expression and secretion of key pro-inflammatory mediators. Primary hPTECs were cultured as described above and treated with TGFβ1 (10 ng/mL)±danegaptide (100 nM) for 48 h.

primary hPTECs [2] = assay: Inflammation antibody array, supernatant (Table 2); type: cell-based, human; conditions: hPTEC supernatant; TGF-β1 10 ng/mL alone, 48 h
Description: as §1, with “supernatant” for “cell lysates”
as §2

T1 sequence (P17302 whole entry): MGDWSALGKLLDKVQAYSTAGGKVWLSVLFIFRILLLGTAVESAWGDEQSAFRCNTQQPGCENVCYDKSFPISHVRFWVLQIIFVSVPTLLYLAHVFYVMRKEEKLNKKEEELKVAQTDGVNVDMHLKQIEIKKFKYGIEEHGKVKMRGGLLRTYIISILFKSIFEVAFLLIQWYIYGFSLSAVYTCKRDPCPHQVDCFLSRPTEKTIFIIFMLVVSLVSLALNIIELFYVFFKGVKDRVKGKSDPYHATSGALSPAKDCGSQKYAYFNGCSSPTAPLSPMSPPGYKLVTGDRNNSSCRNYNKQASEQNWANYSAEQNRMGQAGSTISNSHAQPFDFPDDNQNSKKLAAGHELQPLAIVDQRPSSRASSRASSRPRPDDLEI

For “TGFβ1: Recombinant hTGFβ1 (Sigma); pro-fibrotic cytokine used to stimulate the cells [reference compound]”, which ATP release (Cx43 hemichannels) is on record?
Its ATP release is 3.60 ± 0.29 µM.

And the “LDH release compared to control” value (HK2 cells)?
The value was 109.3±11.3%.

What about the “Angiogenin in lysate (% compared to control)” value (primary hPTECs [1]) of the same substance?
Its value is 237 ± 36^ %.

And the “Cystatin C in lysate (% compared to control)” value (primary hPTECs [1])?
Its value is 182 ± 17.5%.

And the “DPPIV in lysate (% compared to control)” value (primary hPTECs [1])?
Its value is 315 ± 6.8%.

And the “ENA 78 in lysate (% compared to control)” value (primary hPTECs [1])?
The value was 207 ± 21.6%.

And the “Endoglin in lysate (% compared to control)” value (primary hPTECs [1])?
Its value is 145 ± 24.9%.

What about the “FGF7 in lysate (% compared to control)” value (primary hPTECs [1]) of the same substance?
Its value is 139 ± 5.6%.

And the “Flt 3 Ligand in lysate (% compared to control)” value (primary hPTECs [1])?
The value was 212 ± 13.3%.

And the “G-CSF in lysate (% compared to control)” value (primary hPTECs [1])?
The value was 201 ± 24.6%.

And the “GM-CSF in lysate (% compared to control)” value (primary hPTECs [1])?
Its value is 221 ± 11.1%.

And the “HGF in lysate (% compared to control)” value (primary hPTECs [1])?
Its value is 153 ± 17.0%.

What about the “ICAM 1 in lysate (% compared to control)” value (primary hPTECs [1]) of the same substance?
The value was 190 ± 13.6%.

What about the “IFNg in lysate (% compared to control)” value (primary hPTECs [1]) of the same substance?
Its value is 206 ± 15.4%.

What about the “IGFBP2 in lysate (% compared to control)” value (primary hPTECs [1]) of the same substance?
Its value is 519 ± 99.4%.

What about the “IGFBP3 in lysate (% compared to control)” value (primary hPTECs [1]) of the same substance?
Its value is 394 ± 94.5%.

And the “IL1A in lysate (% compared to control)” value (primary hPTECs [1])?
Its value is 127 ± 26.4%.

And the “IL3 in lysate (% compared to control)” value (primary hPTECs [1])?
The value was 176 ± 3.4%.

And the “IL8 in lysate (% compared to control)” value (primary hPTECs [1])?
The value was 236 ± 9.4%.

And the “IL12 p70 in lysate (% compared to control)” value (primary hPTECs [1])?
The value was 177 ± 31.0%.

And the “IL13 in lysate (% compared to control)” value (primary hPTECs [1])?
Its value is 269 ± 3.9%.

And the “Kallikrein 3 in lysate (% compared to control)” value (primary hPTECs [1])?
Its value is 76 ± 12.0%.

And the “LIF in lysate (% compared to control)” value (primary hPTECs [1])?
The value was 328 ± 70.4%.

And the “MCP-1 in lysate (% compared to control)” value (primary hPTECs [1])?
The value was 134 ± 30.2%.

And the “MMP9 in lysate (% compared to control)” value (primary hPTECs [1])?
Its value is 24 ± 3.1%.

What about the “PDGF-AA/BB in lysate (% compared to control)” value (primary hPTECs [1]) of the same substance?
Its value is 247 ± 53.4%.

And the “RAGE in lysate (% compared to control)” value (primary hPTECs [1])?
The value was 109 ± 23.8%.

And the “RANTES in lysate (% compared to control)” value (primary hPTECs [1])?
The value was 235 ± 13.5%.

And the “Serpin E1 in lysate (% compared to control)” value (primary hPTECs [1])?
The value was 186 ± 40.2%.

And the “TFF3 in lysate (% compared to control)” value (primary hPTECs [1])?
The value was 204 ± 25.8%.

What about the “TNF-α in lysate (% compared to control)” value (primary hPTECs [1]) of the same substance?
The value was 192 ± 14.7%.

What about the “Thrombospondin-1 in lysate (% compared to control)” value (primary hPTECs [1]) of the same substance?
Its value is 128 ± 37.5%.

What about the “VEGF in lysate (% compared to control)” value (primary hPTECs [1]) of the same substance?
The value was 203 ± 25.9%.

What about the “Angiogenin in supernatant (% compared to control)” value (primary hPTECs [2]) of the same substance?
Its value is 184 ± 13.2%.

And the “Cystatin C in supernatant (% compared to control)” value (primary hPTECs [2])?
Its value is 169 ± 19.7%.

And the “DPPIV in supernatant (% compared to control)” value (primary hPTECs [2])?
The value was 222 ± 24.3%.

And the “ENA 78 in supernatant (% compared to control)” value (primary hPTECs [2])?
The value was 193 ± 17.7%.

And the “Endoglin in supernatant (% compared to control)” value (primary hPTECs [2])?
Its value is 101 ± 10.6%.

And the “FGF7 in supernatant (% compared to control)” value (primary hPTECs [2])?
The value was 125 ± 11.3%.

What about the “Flt 3 Ligand in supernatant (% compared to control)” value (primary hPTECs [2]) of the same substance?
The value was 179 ± 6.5%.

What about the “G-CSF in supernatant (% compared to control)” value (primary hPTECs [2]) of the same substance?
Its value is 171 ± 7.3%.

What about the “GM-CSF in supernatant (% compared to control)” value (primary hPTECs [2]) of the same substance?
Its value is 213 ± 33.3%.

What about the “HGF in supernatant (% compared to control)” value (primary hPTECs [2]) of the same substance?
The value was 85 ± 15.8%.

What about the “ICAM-1 in supernatant (% compared to control)” value (primary hPTECs [2]) of the same substance?
The value was 191 ± 13.0%.

What about the “IFNg in supernatant (% compared to control)” value (primary hPTECs [2]) of the same substance?
The value was 123 ± 11.0%.

And the “IGFBP-2 in supernatant (% compared to control)” value (primary hPTECs [2])?
The value was 259 ± 49.6%.

What about the “IGFBP-3 in supernatant (% compared to control)” value (primary hPTECs [2]) of the same substance?
The value was 147 ± 7.0%.

What about the “IL1A in supernatant (% compared to control)” value (primary hPTECs [2]) of the same substance?
Its value is 109 ± 14.8%.

What about the “IL3 in supernatant (% compared to control)” value (primary hPTECs [2]) of the same substance?
The value was 127 ± 30.6%.

What about the “IL8 in supernatant (% compared to control)” value (primary hPTECs [2]) of the same substance?
The value was 138 ± 48.4%.

What about the “IL12 p70 in supernatant (% compared to control)” value (primary hPTECs [2]) of the same substance?
The value was 74 ± 11.5%.

And the “IL13 in supernatant (% compared to control)” value (primary hPTECs [2])?
Its value is 95 ± 16.4%.

What about the “Kallikrein 3 in supernatant (% compared to control)” value (primary hPTECs [2]) of the same substance?
Its value is 75 ± 5.61%.

And the “LIF in supernatant (% compared to control)” value (primary hPTECs [2])?
The value was 249 ± 32.1%.

What about the “MCP-1 in supernatant (% compared to control)” value (primary hPTECs [2]) of the same substance?
The value was 171 ± 14.3%.

What about the “MMP-9 in supernatant (% compared to control)” value (primary hPTECs [2]) of the same substance?
Its value is 41 ± 8.8%.

And the “PDGF-AA/BB in supernatant (% compared to control)” value (primary hPTECs [2])?
Its value is 137 ± 9.7%.

What about the “RAGE in supernatant (% compared to control)” value (primary hPTECs [2]) of the same substance?
The value was 170 ± 16.3%.

What about the “RANTES in supernatant (% compared to control)” value (primary hPTECs [2]) of the same substance?
Its value is 140 ± 8.6%.

And the “Serpin E1 in supernatant (% compared to control)” value (primary hPTECs [2])?
Its value is 91 ± 4.7%.

And the “TFF3 in supernatant (% compared to control)” value (primary hPTECs [2])?
Its value is 114 ± 22.2%.

What about the “TNF-α in supernatant (% compared to control)” value (primary hPTECs [2]) of the same substance?
The value was 176 ± 5.5%.

What about the “Thrombospondin-1 in supernatant (% compared to control)” value (primary hPTECs [2]) of the same substance?
The value was 120 ± 24.8%.

What about the “VEGF in supernatant (% compared to control)” value (primary hPTECs [2]) of the same substance?
Its value is 209 ± 43.3%.
